The values below are quoted from earlier work in US20030199492A1, “Combination therapy” (priority 1997, published 2003).

For data set [1], the system named is smooth muscle cell migration.

For `CCOC(=O)C1=C(COCCN)NC(C)=C(C(=O)OC)C1c1ccccc1Cl` (single isomer, unassigned) [R(+) isomer, amlodipine], the “calcium channel blocking activity” value with calcium channel was “little or no calcium channel blocking activity”. The “inhibition of smooth muscle cell migration” value in data set [1] is reported as “potent inhibitor of smooth muscle cell migration”.
